Laboratory results from patent US9526785B2, “Pharmaceuticals for oral delivery” (Enteris BioPharma, Inc., priority 2013, dated 2016).
Like-named read-outs stand apart in the source and are kept apart here.

Assay: Tigecycline plasma PK and % F after PO enteric-coated capsule in dogs
Assay type: in vivo, Beagle dogs
Conditions: female, beagle, dog, plasma, po; for concentration at 2 hr / concentration at 3 hr / concentration at 4 hr / concentration at 5 hr / concentration at 6 hr / concentration at 8 hr / concentration at 10 hr / concentration at 24 hr: PO 30 mg unformulated enteric-coated capsule; for concentration at 0 min: Time (min) 0.0; for concentration at 0.3 min: Time (min) 0.3; for concentration at 24 min: Time (min) 24.0; for bioavailability: read-out: % F
Procedure: Adult beagle dogs weighing approximately 9 to 15 kg were used in the study. […] Room temperature was set to be maintained between approximately 20±5° C. Relative humidity was monitored but not controlled.
TEKLAD™ Certified Canine Diet was provided once daily in amounts (˜400 grams) appropriate for the size and age of the animals. Tap water was available ad libitum via automatic watering device or water bowls.
Oral dosing of enteric-coated capsules was accomplished by administering them to the back of the dog's mouth, followed by a chase of 5 mL water to ensure swallowing.
Water was provided ad libitum. […] Subsequently, each group of animals was dosed based on the protocol, i.e. either IV, or PO by capsule.
Minocycline (VWR international) was used as an internal standard. Sample processing/clean-up of plasma samples was carried out offline by protein precipitation with acidified acetonitrile using 0.5% trifluoroacetic acid (TFA).
The HPLC system consisted of Shimadzu SIL-HTc HPLC system equipped with dual Shimadzu LC-10ADvp isopumps, a Shimadzu CTO-10ASvp column temperature controller and a Shimadzu SPD-10Avp variable wavelength detector. […] Mobile phase A consisted of 23 mM phosphate buffer pH 2.5 with 4 mM 1-octanesulfonic acid, while mobile phase B consisting of 90% acetonitrile, 10% water, with 2 mM 1-octanesulfonic acid. […] The total runtime was 18 minutes per sample. The mobile phase flow rate was 1.2 mL/min. Detection was performed using the SPD-10Avp variable wavelength detector set at 350 nm, with a sensitivity of 0.001 aufs.
The samples were then centrifuged under refrigeration at 13 k rpm for 5 minutes. The supernatant was taken and the liquid removed to dryness under nitrogen in a turbovap. The dried extract was reconstituted in 60 μL of mobile phase A and the suspension was further centrifuged at 5 k rpm for 5 minutes to pellet any insoluble matter. The resulting supernatant was then injected onto the LC.
The unknown concentration in dog plasma samples was determined by interpolation of the peak area ratios of analyte:internal standard versus the ratio of their nominal concentrations into the regression line obtained from calibration standards spiked in pooled dog plasma. No regression weighting was used for the calculations. […] The calibration curve covered the range of 0.05 μg/mL to 5 μg/mL. […]
The capsules were enterically coated using a standard preclinical protocol to 10% weight gain. Two studies were conducted.

[1] = 30 mg, Tigecycline Plasma Concentration, SC430, individual dogs
[2] = 30 mg, Tigecycline Plasma Concentration, SC430, mean
[3] = 30 mg, Tigecycline Plasma Concentration, PO 30 mg enteric-coated capsule with 500 mg CA and 100 mg LLC, SC430, individual dogs
[4] = 30 mg, Tigecycline Plasma Concentration, PO 30 mg enteric-coated capsule with 500 mg CA and 100 mg LLC, SC430, mean

`CN(C)c1cc(NC(=O)CNC(C)(C)C)c(O)c2c1C[C@H]1C[C@H]3[C@H](N(C)C)C(O)=C(C(N)=O)C(=O)[C@@]3(O)C(O)=C1C2=O` [Tigecycline] showed a concentration at 2 hr [1] of 0 ng/mL, a concentration at 2 hr [2] of 0 ng/mL and a concentration at 3 hr [1] of 0 ng/mL. The concentration at 3 hr [2] was 0 ng/mL, the concentration at 4 hr [1] was 0 ng/mL and the concentration at 4 hr [2] was 0 ng/mL. For the same molecule, the concentration at 5 hr [1] was 0 ng/mL, the concentration at 5 hr [2] was 0 ng/mL and the concentration at 6 hr [1] was 0 ng/mL. The concentration at 6 hr [2] was 0 ng/mL, the concentration at 8 hr [1] was 0 ng/mL and the concentration at 8 hr [2] was 0 ng/mL. The concentration at 10 hr [1] was 0 ng/mL, the concentration at 10 hr [2] was 0 ng/mL and the concentration at 0 min [3] was 0 ng/mL. It also gave a concentration at 0 min [4] of 0 ng/mL, a concentration at 0.3 min [3] of 0 ng/mL and a concentration at 0.3 min [4] of 0 ng/mL. The concentration at 0.7 min (30 mg, Tigecycline Plasma Concentration, Time (min) 0.7, PO 30 mg enteric-coated capsule with 500 mg CA and 100 mg LLC, SC430, mean) was 26.4 ng/mL, the concentration at 1 min (30 mg, Tigecycline Plasma Concentration, Time (min) 1.0, PO 30 mg enteric-coated capsule with 500 mg CA and 100 mg LLC, SC430, mean) was 49 ng/mL and the concentration at […] (30 mg, Tigecycline Plasma Concentration, Time (min) 1.3, PO 30 mg enteric-coated capsule with 500 mg CA and 100 mg LLC, SC430, mean) was 51.2 ng/mL. The concentration at […] (30 mg, Tigecycline Plasma Concentration, Time (min) 1.7, PO 30 mg enteric-coated capsule with 500 mg CA and 100 mg LLC, SC430, mean) was 63.6 ng/mL, the concentration at 2 min (30 mg, Tigecycline Plasma Concentration, Time (min) 2.0, PO 30 mg enteric-coated capsule with 500 mg CA and 100 mg LLC, SC430, mean) was 83.5 ng/mL and the concentration at […] (30 mg, Tigecycline Plasma Concentration, Time (min) 2.3, PO 30 mg enteric-coated capsule with 500 mg CA and 100 mg LLC, SC430, mean) was 72.1 ng/mL. It also gave a concentration at […] (30 mg, Tigecycline Plasma Concentration, Time (min) 2.7, PO 30 mg enteric-coated capsule with 500 mg CA and 100 mg LLC, SC430, mean) of 59.1 ng/mL, a concentration at 3 min (30 mg, Tigecycline Plasma Concentration, Time (min) 3.0, PO 30 mg enteric-coated capsule with 500 mg CA and 100 mg LLC, SC430, mean) of 49.9 ng/mL and a concentration at […] (30 mg, Tigecycline Plasma Concentration, Time (min) 3.3, PO 30 mg enteric-coated capsule with 500 mg CA and 100 mg LLC, SC430, mean) of 42.4 ng/mL. The concentration at […] (30 mg, Tigecycline Plasma Concentration, Time (min) 3.7, PO 30 mg enteric-coated capsule with 500 mg CA and 100 mg LLC, SC430, mean) was 40.6 ng/mL, the concentration at 4 min (30 mg, Tigecycline Plasma Concentration, Time (min) 4.0, PO 30 mg enteric-coated capsule with 500 mg CA and 100 mg LLC, SC430, mean) was 36.6 ng/mL and the concentration at […] (30 mg, Tigecycline Plasma Concentration, Time (min) 4.5, PO 30 mg enteric-coated capsule with 500 mg CA and 100 mg LLC, SC430, mean) was 33.5 ng/mL. The concentration at 5 min (30 mg, Tigecycline Plasma Concentration, Time (min) 5.0, PO 30 mg enteric-coated capsule with 500 mg CA and 100 mg LLC, SC430, mean) was 31.8 ng/mL, the concentration at […] (30 mg, Tigecycline Plasma Concentration, Time (min) 5.5, PO 30 mg enteric-coated capsule with 500 mg CA and 100 mg LLC, SC430, mean) was 37.9 ng/mL and the concentration at 6 min (30 mg, Tigecycline Plasma Concentration, Time (min) 6.0, PO 30 mg enteric-coated capsule with 500 mg CA and 100 mg LLC, SC430, mean) was 21.2 ng/mL. It also gave a concentration at 8 min (30 mg, Tigecycline Plasma Concentration, Time (min) 8.0, PO 30 mg enteric-coated capsule with 500 mg CA and 100 mg LLC, SC430, mean) of 7.27 ng/mL, a concentration at 10 min (30 mg, Tigecycline Plasma Concentration, Time (min) 10.0, PO 30 mg enteric-coated capsule with 500 mg CA and 100 mg LLC, SC430, mean) of 2.58 ng/mL and a concentration at 24 min [3] of 0 ng/mL. For the same molecule, the concentration at 24 min [4] was 0 ng/mL, the concentration at 24 hr [1] was 0 ng/mL and the concentration at 24 hr [2] was 0 ng/mL. It also gave a Cmax (30 mg, target dose 30 mg, enterically coated capsule, excluding animal 5256, read-out: Observed Mean Cmax) of 121 ng/mL, an AUC(0-t) (30 mg, target dose 30 mg, enterically coated capsule, time scale adjusted to 4 hours, excluding animal 5256, read-out: Observed AUC(0-t)) of 214 ng·h/mL and a bioavailability (30 mg) of 14.9%. The AUC(0-t) (30 mg, read-out: AUC(0-t)) was 367 ng·h/mL, the Cmax (30 mg, read-out: Cmax) was 121 ng/mL and the bioavailability (45 mg, 45 mg Formulated (500 mg CA, 100 mg LLC) enteric coated capsule, Study 2 (SC430), mean (% CV)) was 15.5%. It also gave an AUC(0-t) (45 mg, 45 mg Formulated (500 mg CA, 100 mg LLC) enteric coated capsule, Study 2 (SC430), mean (% CV), read-out: AUC(0-t)) of 574 ng·h/mL and a Cmax (45 mg, 45 mg Formulated (500 mg CA, 100 mg LLC) enteric coated capsule, Study 2 (SC430), mean (% CV), read-out: Cmax) of 177 ng/mL.
